Experimental data reported in ChEMBL document CHEMBL5465560, “Selectivity Literature for EUbOPEN Chemogenomic Library” (2024).

Tests used:
[1] = target: Phosphatidylinositol 4,5-bisphosphate 3-kinase catalytic subunit gamma isoform (Homo sapiens) (UniProt P48736); experiment: Selectivity interaction (Adapta Assay) EUB0001632a PIK3CG; conditions: at 10 µM
[2] = target: Type-2 angiotensin II receptor (Homo sapiens) (UniProt P50052); experiment: Selectivity interaction (Eurofins CEREP Diversity Profile (receptors and ion channels)) EUB0000279b AGTR2; conditions: at 10 µM
[3] = target: T1, Serine/threonine-protein kinase DCLK2 (Homo sapiens) (UniProt Q8N568); experiment: Selectivity interaction (SelectScreen profiling (Invitrogen)) EUB0000607a DCLK2; conditions: at 2 µM
T1 sequence (whole entry): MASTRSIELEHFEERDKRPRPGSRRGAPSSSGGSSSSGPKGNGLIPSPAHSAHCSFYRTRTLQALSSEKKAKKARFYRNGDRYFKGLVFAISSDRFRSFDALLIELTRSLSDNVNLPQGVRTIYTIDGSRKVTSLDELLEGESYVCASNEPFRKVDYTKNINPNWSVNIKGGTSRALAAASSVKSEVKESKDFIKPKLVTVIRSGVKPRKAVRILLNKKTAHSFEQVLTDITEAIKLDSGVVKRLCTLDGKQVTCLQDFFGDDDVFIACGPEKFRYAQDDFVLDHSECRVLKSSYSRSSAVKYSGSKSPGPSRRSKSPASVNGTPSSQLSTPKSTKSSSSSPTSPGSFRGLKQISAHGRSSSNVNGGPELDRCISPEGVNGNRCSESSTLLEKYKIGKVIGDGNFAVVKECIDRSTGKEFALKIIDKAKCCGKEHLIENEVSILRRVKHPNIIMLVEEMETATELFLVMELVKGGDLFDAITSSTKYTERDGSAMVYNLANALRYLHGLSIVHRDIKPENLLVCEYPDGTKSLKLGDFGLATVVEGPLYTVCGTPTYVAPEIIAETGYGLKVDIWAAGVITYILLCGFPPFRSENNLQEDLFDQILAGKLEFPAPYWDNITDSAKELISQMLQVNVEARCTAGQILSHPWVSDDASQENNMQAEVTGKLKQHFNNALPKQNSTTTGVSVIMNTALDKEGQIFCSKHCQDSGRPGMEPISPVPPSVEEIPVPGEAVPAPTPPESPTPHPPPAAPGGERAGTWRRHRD

[4] = target: Tyrosine-protein kinase Fes/Fps (Homo sapiens) (UniProt P07332); experiment: Selectivity interaction (SelectScreen profiling (Invitrogen)) EUB0000607a FES; conditions: at 2 µM
[5] = target: Serine/threonine-protein kinase MARK1 (Homo sapiens) (UniProt Q9P0L2); experiment: Selectivity interaction (KinomeScan (DiscoverX)) EUB0000607a MARK1; conditions: at 10 µM
[6] = target: 5-hydroxytryptamine receptor 1B (Homo sapiens) (UniProt P28222); experiment: Selectivity interaction (Panel of kinases, GPCRs, ion channels and transporters (enzymatic assay)) EUB0000266bCl HTR1B
[7] = target: T2, Aurora kinase A (Homo sapiens) (UniProt O14965); experiment: Selectivity interaction (ActivX KiNativ screen (kinase selectivity in THP-1 cell lysates)) EUB0000639a STK6; type: subcellular; conditions: lysate, at 0.04 µM
T2 sequence (whole entry): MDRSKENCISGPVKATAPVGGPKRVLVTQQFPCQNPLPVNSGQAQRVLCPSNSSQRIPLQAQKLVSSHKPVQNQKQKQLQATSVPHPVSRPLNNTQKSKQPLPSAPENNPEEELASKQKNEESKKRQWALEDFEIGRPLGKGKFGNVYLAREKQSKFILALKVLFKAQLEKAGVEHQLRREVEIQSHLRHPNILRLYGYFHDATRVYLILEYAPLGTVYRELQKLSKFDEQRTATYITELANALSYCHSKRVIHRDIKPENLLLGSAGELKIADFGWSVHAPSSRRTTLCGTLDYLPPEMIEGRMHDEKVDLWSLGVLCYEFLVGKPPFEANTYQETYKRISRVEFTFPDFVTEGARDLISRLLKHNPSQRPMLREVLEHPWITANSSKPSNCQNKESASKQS

[8] = target: CDC7/DBF4 (Cell division cycle 7-related protein kinase/Activator of S phase kinase) (Homo sapiens) (UniProt Q9UBU7+O00311); experiment: Selectivity interaction (ProQinase) EUB0000171b CDC7; type: protein-complex assay
[9] = target: Angiopoietin-1 receptor (Homo sapiens) (UniProt Q02763); experiment: Selectivity interaction (ProQinase) EUB0000171b TEK; conditions: at 1 µM
[10] = target: Tyrosine-protein kinase Fes/Fps (Homo sapiens) (UniProt P07332); experiment: Selectivity interaction (KinomeScan (DiscoverX)) EUB0000695a FES; conditions: at 100 nM
[11] = target: Serine/threonine-protein kinase PAK 4 (Homo sapiens, UniProt O96013); experiment: Selectivity interaction (Ambit KINOMEscan and KiNATiv profiling in Jurkat cells) EUB0000090b PAK4; type: cell-based; conditions: at 1 µM
[12] = target: Phosphatidylinositol 4,5-bisphosphate 3-kinase catalytic subunit gamma isoform (Homo sapiens) (UniProt P48736); experiment: Selectivity interaction (Ambit KINOMEscan and KiNATiv profiling in Jurkat cells) EUB0000090b PIK3CG; type: cell-based; conditions: at 1 µM
[13] = target: MAP kinase-interacting serine/threonine-protein kinase 1 (Homo sapiens) (UniProt Q9BUB5); experiment: Selectivity interaction (Ambit KINOMEscan and KiNATiv profiling in Jurkat cells) EUB0000090b MKNK1; type: cell-based; conditions: at 1 µM
[14] = target: Muscarinic acetylcholine receptor M3 (Homo sapiens, UniProt P20309); experiment: Selectivity interaction (GPCR panel (PDSP screen)) EUB0001079a CHRM3; conditions: at 10 µM
[15] = target: Protein polybromo-1 (Homo sapiens) (UniProt Q86U86); experiment: Selectivity interaction (Bromodomain panel (DSF asssay)) EUB0000270b PBRM1
[16] = target: Atypical kinase COQ8A, mitochondrial (Homo sapiens, UniProt Q8NI60); experiment: Selectivity interaction (Competition-binding assay (DiscoverX)) EUB0000229b ADCK3
[17] = target: T3, Rhodopsin kinase GRK7 (Homo sapiens) (UniProt Q8WTQ7); experiment: Selectivity interaction (KinomeScan (DiscoverX)) EUB0000092b GRK7; conditions: at 10 µM
T3 sequence (whole entry): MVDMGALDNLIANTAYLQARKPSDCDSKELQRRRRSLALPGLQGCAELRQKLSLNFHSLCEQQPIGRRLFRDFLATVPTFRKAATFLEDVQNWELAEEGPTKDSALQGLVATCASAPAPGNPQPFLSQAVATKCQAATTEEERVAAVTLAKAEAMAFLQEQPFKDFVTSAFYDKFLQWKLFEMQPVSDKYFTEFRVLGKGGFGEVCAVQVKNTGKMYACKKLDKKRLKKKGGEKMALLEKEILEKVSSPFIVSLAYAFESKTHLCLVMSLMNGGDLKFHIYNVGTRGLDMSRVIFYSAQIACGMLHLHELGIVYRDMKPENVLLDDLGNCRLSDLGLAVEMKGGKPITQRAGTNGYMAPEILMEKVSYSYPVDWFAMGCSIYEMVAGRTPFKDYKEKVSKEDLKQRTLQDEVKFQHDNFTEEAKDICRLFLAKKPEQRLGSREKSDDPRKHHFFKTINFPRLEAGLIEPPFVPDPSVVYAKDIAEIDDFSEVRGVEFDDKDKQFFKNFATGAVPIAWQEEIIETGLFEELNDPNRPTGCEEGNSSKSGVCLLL

CDC7/DBF4 (Cell division cycle 7-related protein kinase/Activator of S phase kinase) (Homo sapiens), sequence (O00311 whole entry, looked up): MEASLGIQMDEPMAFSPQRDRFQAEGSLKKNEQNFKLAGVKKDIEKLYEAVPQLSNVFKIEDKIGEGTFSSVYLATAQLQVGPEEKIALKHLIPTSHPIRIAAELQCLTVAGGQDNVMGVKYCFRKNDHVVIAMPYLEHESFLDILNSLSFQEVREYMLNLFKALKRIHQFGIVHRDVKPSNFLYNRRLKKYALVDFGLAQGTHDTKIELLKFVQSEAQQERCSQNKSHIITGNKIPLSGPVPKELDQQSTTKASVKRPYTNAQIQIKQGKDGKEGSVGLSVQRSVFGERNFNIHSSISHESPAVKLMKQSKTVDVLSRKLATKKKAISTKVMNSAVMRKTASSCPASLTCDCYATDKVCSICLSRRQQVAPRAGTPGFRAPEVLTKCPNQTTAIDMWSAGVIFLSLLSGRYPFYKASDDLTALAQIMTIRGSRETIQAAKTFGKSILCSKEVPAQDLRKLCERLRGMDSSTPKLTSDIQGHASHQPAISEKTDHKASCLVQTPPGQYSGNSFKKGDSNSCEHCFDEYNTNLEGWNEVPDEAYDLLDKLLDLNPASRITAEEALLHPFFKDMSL
CDC7/DBF4 (Cell division cycle 7-related protein kinase/Activator of S phase kinase) (Homo sapiens), sequence (Q9UBU7 whole entry, looked up): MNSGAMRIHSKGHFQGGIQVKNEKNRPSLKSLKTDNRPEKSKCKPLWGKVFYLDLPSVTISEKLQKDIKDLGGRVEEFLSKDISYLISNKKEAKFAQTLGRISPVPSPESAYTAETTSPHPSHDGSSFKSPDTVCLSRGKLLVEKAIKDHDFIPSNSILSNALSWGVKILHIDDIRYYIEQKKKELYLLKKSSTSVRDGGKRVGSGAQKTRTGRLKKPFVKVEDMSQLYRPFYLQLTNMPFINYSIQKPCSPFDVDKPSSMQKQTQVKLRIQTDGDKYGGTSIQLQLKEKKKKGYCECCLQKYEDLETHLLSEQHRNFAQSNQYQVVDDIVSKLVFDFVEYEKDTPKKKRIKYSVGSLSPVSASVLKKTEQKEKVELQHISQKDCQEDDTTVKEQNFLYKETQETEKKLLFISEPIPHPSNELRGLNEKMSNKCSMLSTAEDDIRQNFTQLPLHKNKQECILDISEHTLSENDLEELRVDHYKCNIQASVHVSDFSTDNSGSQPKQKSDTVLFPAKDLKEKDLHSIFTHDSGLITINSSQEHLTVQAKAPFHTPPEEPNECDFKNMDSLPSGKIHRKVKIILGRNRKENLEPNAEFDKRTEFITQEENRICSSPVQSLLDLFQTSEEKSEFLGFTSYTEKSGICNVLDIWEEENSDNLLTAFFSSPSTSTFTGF
Phosphatidylinositol 4,5-bisphosphate 3-kinase catalytic subunit gamma isoform (Homo sapiens), sequence (P48736 whole entry, looked up, canonical isoform): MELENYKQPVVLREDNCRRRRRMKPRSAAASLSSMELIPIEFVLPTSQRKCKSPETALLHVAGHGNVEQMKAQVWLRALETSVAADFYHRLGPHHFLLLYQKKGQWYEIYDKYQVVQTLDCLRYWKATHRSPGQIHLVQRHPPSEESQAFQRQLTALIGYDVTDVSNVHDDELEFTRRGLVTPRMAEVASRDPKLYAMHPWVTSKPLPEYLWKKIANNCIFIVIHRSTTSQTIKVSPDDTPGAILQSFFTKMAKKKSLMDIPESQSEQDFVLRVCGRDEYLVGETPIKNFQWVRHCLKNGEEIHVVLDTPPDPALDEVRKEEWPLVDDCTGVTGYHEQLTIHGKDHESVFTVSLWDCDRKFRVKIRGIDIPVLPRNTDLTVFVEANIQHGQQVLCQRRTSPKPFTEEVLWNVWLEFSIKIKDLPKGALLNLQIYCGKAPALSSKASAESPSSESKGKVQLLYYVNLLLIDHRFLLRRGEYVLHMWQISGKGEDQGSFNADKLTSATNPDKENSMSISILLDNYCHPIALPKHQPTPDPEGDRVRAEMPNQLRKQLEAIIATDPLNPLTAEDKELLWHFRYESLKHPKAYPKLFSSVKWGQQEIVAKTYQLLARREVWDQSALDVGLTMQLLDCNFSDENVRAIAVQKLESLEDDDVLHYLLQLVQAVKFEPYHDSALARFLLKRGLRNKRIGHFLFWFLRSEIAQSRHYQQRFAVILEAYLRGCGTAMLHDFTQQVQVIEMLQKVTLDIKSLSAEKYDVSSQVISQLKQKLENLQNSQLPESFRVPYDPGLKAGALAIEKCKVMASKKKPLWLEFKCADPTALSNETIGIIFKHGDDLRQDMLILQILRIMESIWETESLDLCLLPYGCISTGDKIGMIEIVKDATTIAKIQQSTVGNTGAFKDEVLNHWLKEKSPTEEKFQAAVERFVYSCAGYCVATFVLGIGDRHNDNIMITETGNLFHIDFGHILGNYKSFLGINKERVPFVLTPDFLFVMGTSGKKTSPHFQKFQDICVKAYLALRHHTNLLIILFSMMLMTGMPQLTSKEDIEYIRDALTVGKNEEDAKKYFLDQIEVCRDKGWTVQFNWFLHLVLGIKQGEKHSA
Tyrosine-protein kinase Fes/Fps (Homo sapiens), sequence (P07332 whole entry): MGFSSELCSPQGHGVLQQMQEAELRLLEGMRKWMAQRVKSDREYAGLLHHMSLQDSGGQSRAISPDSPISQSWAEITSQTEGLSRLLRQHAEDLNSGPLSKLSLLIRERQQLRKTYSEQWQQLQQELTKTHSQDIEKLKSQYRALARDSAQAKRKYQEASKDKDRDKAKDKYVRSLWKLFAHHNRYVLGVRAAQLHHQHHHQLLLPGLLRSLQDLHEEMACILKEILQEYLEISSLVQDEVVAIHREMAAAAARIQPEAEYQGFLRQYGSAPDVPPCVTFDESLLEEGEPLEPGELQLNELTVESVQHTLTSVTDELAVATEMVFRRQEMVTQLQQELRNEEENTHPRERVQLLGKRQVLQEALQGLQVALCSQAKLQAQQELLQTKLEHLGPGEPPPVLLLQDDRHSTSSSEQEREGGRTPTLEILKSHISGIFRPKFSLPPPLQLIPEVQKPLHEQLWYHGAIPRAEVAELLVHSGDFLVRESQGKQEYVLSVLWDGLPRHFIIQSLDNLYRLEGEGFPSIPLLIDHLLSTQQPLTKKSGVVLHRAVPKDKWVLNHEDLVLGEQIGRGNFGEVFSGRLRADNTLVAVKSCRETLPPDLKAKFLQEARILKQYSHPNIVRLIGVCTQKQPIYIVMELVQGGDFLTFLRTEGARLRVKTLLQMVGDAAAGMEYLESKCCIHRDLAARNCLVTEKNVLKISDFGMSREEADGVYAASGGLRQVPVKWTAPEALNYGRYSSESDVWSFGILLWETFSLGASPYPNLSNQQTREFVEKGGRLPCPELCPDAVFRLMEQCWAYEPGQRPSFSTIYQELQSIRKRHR
Serine/threonine-protein kinase PAK 4, sequence (O96013 whole entry, looked up, canonical isoform): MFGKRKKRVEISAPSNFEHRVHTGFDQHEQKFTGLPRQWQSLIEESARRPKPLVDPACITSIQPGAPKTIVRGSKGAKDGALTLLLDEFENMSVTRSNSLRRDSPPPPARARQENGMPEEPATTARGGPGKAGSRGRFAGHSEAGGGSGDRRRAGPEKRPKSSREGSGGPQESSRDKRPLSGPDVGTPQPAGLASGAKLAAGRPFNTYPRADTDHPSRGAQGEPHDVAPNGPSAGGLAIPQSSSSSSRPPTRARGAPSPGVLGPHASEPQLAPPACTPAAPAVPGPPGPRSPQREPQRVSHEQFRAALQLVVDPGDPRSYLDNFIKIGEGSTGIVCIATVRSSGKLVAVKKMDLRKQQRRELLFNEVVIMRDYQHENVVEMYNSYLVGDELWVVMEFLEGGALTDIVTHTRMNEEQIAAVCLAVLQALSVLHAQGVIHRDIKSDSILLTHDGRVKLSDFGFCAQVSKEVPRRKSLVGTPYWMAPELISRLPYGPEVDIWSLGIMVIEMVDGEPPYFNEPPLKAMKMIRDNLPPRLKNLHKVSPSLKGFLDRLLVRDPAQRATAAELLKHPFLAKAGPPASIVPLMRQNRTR
Serine/threonine-protein kinase MARK1 (Homo sapiens), sequence (Q9P0L2 whole entry, looked up): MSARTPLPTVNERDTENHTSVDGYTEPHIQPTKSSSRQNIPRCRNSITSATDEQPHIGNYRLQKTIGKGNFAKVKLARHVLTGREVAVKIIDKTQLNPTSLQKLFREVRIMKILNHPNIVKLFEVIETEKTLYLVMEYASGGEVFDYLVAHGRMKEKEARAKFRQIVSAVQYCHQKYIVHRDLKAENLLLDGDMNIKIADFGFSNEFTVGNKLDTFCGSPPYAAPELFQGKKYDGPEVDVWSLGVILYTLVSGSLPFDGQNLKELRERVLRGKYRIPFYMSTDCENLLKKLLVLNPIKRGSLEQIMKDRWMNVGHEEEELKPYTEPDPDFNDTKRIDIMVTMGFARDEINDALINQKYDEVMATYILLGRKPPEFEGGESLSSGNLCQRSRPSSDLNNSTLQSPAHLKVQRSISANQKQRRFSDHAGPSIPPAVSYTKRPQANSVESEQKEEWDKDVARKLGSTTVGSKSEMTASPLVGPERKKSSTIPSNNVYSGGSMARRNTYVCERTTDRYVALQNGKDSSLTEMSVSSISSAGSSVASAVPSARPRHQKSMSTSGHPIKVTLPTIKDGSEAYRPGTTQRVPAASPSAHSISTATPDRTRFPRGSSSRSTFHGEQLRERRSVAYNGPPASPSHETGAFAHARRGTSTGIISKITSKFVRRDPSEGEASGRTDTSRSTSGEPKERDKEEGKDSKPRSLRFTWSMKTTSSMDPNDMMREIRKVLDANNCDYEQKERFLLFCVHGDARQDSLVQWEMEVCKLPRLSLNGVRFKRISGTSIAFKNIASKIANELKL
Type-2 angiotensin II receptor (Homo sapiens), sequence (P50052 whole entry): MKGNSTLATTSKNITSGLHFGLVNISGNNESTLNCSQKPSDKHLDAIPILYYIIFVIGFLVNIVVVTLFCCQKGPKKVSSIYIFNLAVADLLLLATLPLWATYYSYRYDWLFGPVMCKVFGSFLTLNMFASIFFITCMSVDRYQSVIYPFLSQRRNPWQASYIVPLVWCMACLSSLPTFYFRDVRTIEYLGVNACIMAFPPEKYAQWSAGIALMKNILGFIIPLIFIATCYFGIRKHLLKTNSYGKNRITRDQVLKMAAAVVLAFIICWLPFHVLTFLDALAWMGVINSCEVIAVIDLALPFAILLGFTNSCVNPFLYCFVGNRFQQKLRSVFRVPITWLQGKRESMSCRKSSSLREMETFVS

Cn1cc(-n2cnc3c(NCc4nc5cc(Cl)c(Cl)cc5[nH]4)nc(N4CCOCC4)nc32)cn1
% of inhibition [1]: 29.5%

CC(=O)c1cc(-c2ccccc2OCC2CC2)c2ncccn12
% of control [2]: 106%

CNC(=O)Nc1ccc(-c2nc(N3CC4CCC(C3)O4)c3cnn(C4CCC5(CC4)OCCO5)c3n2)cc1
% of inhibition [3]: 2% | % of inhibition [4]: -1% | % of control [5]: 100%

CCn1c(-c2nc3cc(C(=O)N4CCCC(N)C4)ccc3n2C)cc2ccccc21 (stereo not drawn)
pXC50 [6]: < 4.5 M

CC[C@@H]1[C@H](F)C(=O)N[C@@H]1COc1nccc2cc(C(N)=O)c(OC)cc12 [ZIMLOVISERTIB]
% of inhibition [7]: -1.3%

C=CC(=O)Nc1cccc(C(=O)Nc2ccc(Nc3cc(-c4[nH]c(SC)nc4C)ccn3)cc2)c1
% of control ([8]; at 1 µM): 94% | % of control ([8]; at 5 µM): 89% | % of control [9]: 95%

Cc1cc(F)c(C(=O)Nc2cccc(-c3nncn3C(C)C)n2)cc1-n1cnc(C2CC2)c1
% of control [10]: 100%

CN(C)C/C=C/C(=O)Nc1ccc(C(=O)N2CCCC(Nc3ncc(Cl)c(-c4c[nH]c5ccccc45)n3)C2)cc1 (stereo not drawn)
% of control [11]: 78% | % of control [12]: 92% | % of control [13]: 100%

Nc1cnc(N2CCc3cc(S(=O)(=O)Nc4c(F)cc(Cl)cc4F)cc(N4CCCC4=O)c32)nc1 [TP-020n]
% of inhibition [14]: -18%

Cc1cc(CN)cc(C)c1-c1ncn(C)c1-c1cncn1C
dTM [15]: -1.53 K

COc1cc(N(C)c2ccnc3ccc(C(F)(F)F)cc23)cc(OC)c1OC
Kd [16]: > 10 µM

CCC(=O)N1CCN(c2ccc(-n3c(=O)ccc4cnc5ccc(-c6cnc7ccccc7c6)cc5c43)cc2C(F)(F)F)CC1
% of control [17]: 100%
